Reference: US20080021056A1, “Fused, Tricyclic Sulfonamide Inhibitors of Gamma Secretase” (priority 2006, published 2008)

Target: T1, gamma-secretase (Homo sapiens, UniProt P49768)
T1 construct: partially purified extract of IMR-32 cell membranes as the gamma-secretase enzyme preparation; endogenous in cells; host or cells: IMR-32 cell membranes (partially purified extract)
Experiment: Gamma-secretase APP enzyme assay
Type: biochemical
Settings: cleavage of MBP-C125 Swe substrate at the Aβ40 site, partially purified extract of IMR-32 cell membranes, ELISA
From the text: The gamma-secretase APP enzyme assay was designed to measure the specific proteolytic cleavage of an APP substrate (MBP-C125 Swe fusion protein) at the Aβ40 site. The assay used a partially purified extract of IMR-32 cell membranes as the gamma-secretase enzyme preparation and a recombinant fusion protein containing the C-terminal 125 amino acids of the Swedish variant of the APP (MBP-C125swe) as the substrate. This assay involved two steps beginning with the enzymatic reaction generating a cleavage product that was captured with an immobilized antibody specific for the neo-epitope Aβ40 site. The captured cleavage product was then detected in a sandwich ELISA assay with a biotinylated reporter antibody that is specific to Aβ (17-28). Streptavidin-linked alkaline phosphatase was then added that would generate a fluorescent signal proportional to the amount of cleavage product. This assay was used to discover small molecule inhibitors of gamma-secretase.
Briefly, a 149 mg/ml solution of BIGCHAP detergent was made with water at 42° C. and then rotated for 30 minutes at the same temperatures This warmed solution of BigCHAPS (N,N-Bis(3-D-gluconamidopropyl)cholamide) detergent was used to dissolve Brain Extract Type-V (lipid containing a minimum of 40% phosphatidylethanolamine) from Signa (St. Louis, Mo.) to a concentration of 8 mg/ml. This solution containing BigCHAPS and lipid at 8 mg/ml is then diluted to 0.53 mg/ml lipid with a pre-warmed solution of Hepes and sodium chloride. This final solution containing Hepes buffer, sodium chloride, BigCHAPS detergent and lipid is used to create working solutions of both gamma-secretase (25 Units) and the MBP-C125 substrate (0.05 mg/ml).
Gamma-secretase was then added to a 96-well micro-titre plate and then incubated with various concentrations of inhibitor for 30 minutes at 37° C. MBPC125 substrate was then added to initiate the reaction that would run for two hours at 37° C. The reaction was quenched with the addition of SDS to a final concentration of 0.1% and then 100 μl of the reaction mixture was transferred to a capture ELISA plate and incubated overnight at 4° C. Detection of the cleavage product was performed using a standard sandwich ELISA assay and quantified using a six point standard curve.

SMILES | IC50 [nM] | IC50 (enantiomer A) [nM] | IC50 (enantiomer B) [nM]
O=S(=O)(c1ccc(C(F)(F)F)cc1)N1c2cc(F)c(F)cc2-c2[nH]ncc2C1C1CC1 (racemic) [4-cyclopropyl-7,8-difluoro-5-(4-(trifluoromethyl)phenylsulfonyl)-4,5-dihydro-1H-pyrazolo[4,3-c]quinoline] | 0.1 to 100 | – | –
O=S(=O)(c1ccc(C(F)(F)F)cc1)N1c2ccc(F)cc2-c2[nH]ncc2C1C1CC1 (racemic) [4-cyclopropyl-8-fluoro-5-(4-(trifluoromethyl)phenylsulfonyl)-4,5-dihydro-1H-pyrazolo[4,3-c]quinoline] | 0.1 to 100 | – | –
CC1c2cn[nH]c2C2CCCCC2N1S(=O)(=O)c1ccc(Cl)cc1 (racemic) [5-(4-chlorophenylsulfonyl)-4-methyl-4,5,5a,6,7,8,9,9a-octahydro-1H-pyrazolo[4,3-c]quinoline] | 0.1 to 100 | – | –
CC1c2c[nH]nc2-c2ccccc2N1S(=O)(=O)c1ccc(Cl)cc1 (racemic) [5-[(4-chlorophenyl)sulfonyl]-4-methyl-4,5-dihydro-2H-pyrazolo[4,3-c]quinoline] | 0.1 to 100 | – | –
CC1c2c[nH]nc2-c2cc(F)ccc2N1S(=O)(=O)c1ccc(Cl)cc1 (racemic) [5-[(4-chlorophenyl)sulfonyl]-8-fluoro-4-methyl-4,5-dihydro-2H-pyrazolo[4,3-c]quinoline] | 0.1 to 100 | – | –
CC1c2cn[nH]c2-c2cc(F)ccc2N1S(=O)(=O)c1cccnc1 (racemic) [8-fluoro-4-methyl-5-(pyridin-3-ylsulfonyl)-4,5-dihydro-1H-pyrazolo[4,3-c]quinoline] | 101 to 500 | – | –
O=S(=O)(c1ccc(C(F)(F)F)cc1)N1c2cc(F)c(F)cc2-c2[nH]ncc2C1C1CC1 (single isomer, unassigned) [4-cyclopropyl-7,8-difluoro-5-(4-(trifluoromethyl)phenylsulfonyl)-4,5-dihydro-1H-pyrazolo[4,3-c]quinoline] | 0.1 to 100 | – | –
O=S(=O)(c1ccc(F)cc1)N1c2cc(F)c(F)cc2-c2n[nH]cc2C1C1CC1 (single isomer, unassigned) [4-cyclopropyl-7,8-difluoro-5-(4-fluorophenylsulfonyl)-4,5-dihydro-2H-pyrazolo[4,3-c]quinoline] | 0.1 to 100 | – | –
O=S(=O)(c1ccc(C(F)(F)F)nc1)N1c2cc(F)c(F)cc2-c2[nH]ncc2C1C1CC1 (single isomer, unassigned) [4-cyclopropyl-7,8-difluoro-5-(6-(trifluoromethyl)pyridin-3-ylsulfonyl)-4,5-dihydro-1H-pyrazolo[4,3-c]quinoline] | – | 0.1 to 100 | 0.1 to 100
O=S(=O)(c1ccc(C(F)(F)F)cc1)N1c2ccc(F)cc2-c2[nH]ncc2C1C1CC1 (single isomer, unassigned) [4-cyclopropyl-8-fluoro-5-(4-(trifluoromethyl)phenylsulfonyl)-4,5-dihydro-1H-pyrazolo[4,3-c]quinoline] | – | 0.1 to 100 | 101 to 500
O=S(=O)(c1ccc(C(F)(F)F)cn1)N1c2ccc(F)cc2-c2[nH]ncc2C1C1CC1 (single isomer, unassigned) [4-cyclopropyl-8-fluoro-5-(5-(trifluoromethyl)pyridin-2-ylsulfonyl)-4,5-dihydro-1H-pyrazolo[4,3-c]quinoline] | – | 101 to 500 | 0.1 to 100
O=S(=O)(c1ccc(C(F)(F)F)nc1)N1c2ccc(F)cc2-c2n[nH]cc2C1C1CC1 (single isomer, unassigned) [4-cyclopropyl-8-fluoro-5-(6-(trifluoromethyl)pyridin-3-ylsulfonyl)-4,5-dihydro-2H-pyrazolo[4,3-c]quinoline] | – | 0.1 to 100 | 0.1 to 100
CC1c2c[nH]nc2-c2ccccc2N1S(=O)(=O)c1ccccn1 (single isomer, unassigned) [4-methyl-5-(pyridin-2-ylsulfonyl)-4,5-dihydro-1H-pyrazolo[4,3-c]quinoline] | – | 101 to 500 | 1000 to 10000
CC1c2cn[nH]c2C2CCCCC2N1S(=O)(=O)c1ccc(Cl)cc1 (single isomer, unassigned) [5-(4-chlorophenylsulfonyl)-4-methyl-4,5,5a,6,7,8,9,9a-octahydro-1H-pyrazolo[4,3-c]quinoline] | – | 101 to 500 | 0.1 to 100
CC1c2cn[nH]c2-c2ccc(O)cc2N1S(=O)(=O)c1ccc(Cl)cc1 (single isomer, unassigned) [5-(4-chlorophenylsulfonyl)-4-methyl-4,5-dihydro-1H-pyrazolo[4,3-c]quinolin-7-ol] | – | 0.1 to 100 | 0.1 to 100
CC1c2cn[nH]c2-c2cc(O)c(O)cc2N1S(=O)(=O)c1ccc(Cl)cc1 (single isomer, unassigned) [5-(4-chlorophenylsulfonyl)-4-methyl-4,5-dihydro-1H-pyrazolo[4,3-c]quinoline-7,8-diol] | – | 0.1 to 100 | 101 to 500
CC1c2c[nH]nc2-c2cc(F)c(F)cc2N1S(=O)(=O)c1ccc(Cl)cc1 (single isomer, unassigned) [5-(4-chlorophenylsulfonyl)-7,8-difluoro-4-methyl-4,5-dihydro-2H-pyrazolo[4,3-c]quinoline] | – | 0.1 to 100 | 0.1 to 100
O=S(=O)(c1ccc(Cl)s1)N1c2cc(F)c(F)cc2-c2n[nH]cc2C1C1CC1 (single isomer, unassigned) [5-(5-chlorothiophen-2-ylsulfonyl)-4-cyclopropyl-7,8-difluoro-4,5-dihydro-2H-pyrazolo[4,3-c]quinoline] | – | 0.1 to 100 | 0.1 to 100
CC1c2c[nH]nc2-c2cc(F)ccc2N1S(=O)(=O)c1ccc(Cl)cc1 (single isomer, unassigned) [5-[(4-chlorophenyl)sulfonyl]-8-fluoro-4-methyl-4,5-dihydro-2H-pyrazolo[4,3-c]quinoline] | 0.1 to 100 | – | –
CC1c2cn[nH]c2-c2cc(F)c(F)cc2N1S(=O)(=O)c1ccc(C(F)(F)F)cc1 (single isomer, unassigned) [7,8-difluoro-4-methyl-5-(4-(trifluoromethyl)phenylsulfonyl)-4,5-dihydro-1H-pyrazolo[4,3-c]quinoline] | – | 0.1 to 100 | 101 to 500
CC1c2cnc(N)nc2-c2cc(F)ccc2N1S(=O)(=O)c1ccc(F)cc1 (single isomer, unassigned) [9-fluoro-6-(4-fluorophenylsulfonyl)-5-methyl-5,6-dihydropyrimido[5,4-c]quinolin-2-amine] | – | 1000 to 10000 | 101 to 500
O=c1c2cnn(S(=O)(=O)c3ccc(Cl)cc3)c2c2ccccc2n1S(=O)(=O)c1ccc(Cl)cc1 [1,5-bis(4-chlorophenylsulfonyl)-1H-pyrazolo[4,3-c]quinolin-4(5H)-one] | 1000 to 10000 | – | –
Cc1noc(C)c1S(=O)(=O)N1c2ccc(F)cc2-c2[nH]ncc2C1C (stereo not drawn) [4-(8-fluoro-4-methyl-1H-pyrazolo[4,3-c]quinolin-5(4H)-ylsulfonyl)-3,5-dimethylisoxazole] | 501 to 1000 | – | –
O=S(=O)(c1ccc(OC(F)F)cc1)N1c2ccc(F)cc2-c2n[nH]cc2C1C1CC1 (stereo not drawn) [4-cyclopropyl-5-(4-(difluoromethoxy)phenylsulfonyl)-8-fluoro-4,5-dihydro-1H-pyrazolo[4,3-c]quinoline] | 0.1 to 100 | – | –
O=S(=O)(c1ccc(C(F)(F)F)cc1)N1c2nccn2-c2[nH]ncc2C1C1CC1 (stereo not drawn) [4-cyclopropyl-5-(4-(trifluoromethyl)phenylsulfonyl)-4,5-dihydro-1H-imidazo[1,2-a]pyrazolo[4,3-e]pyrimidine] | 501 to 1000 | – | –
O=S(=O)(c1ccc(C(F)(F)F)cc1)N1c2cccnc2-c2n[nH]cc2C1C1CC1 (stereo not drawn) [4-cyclopropyl-5-(4-(trifluoromethyl)phenylsulfonyl)-4,5-dihydro-2H-pyrazolo[4,3-c][1,5]naphthyridine] | 0.1 to 100 | – | –
O=S(=O)(c1ccc(C(F)(F)F)cc1)N1c2ncccc2-c2n[nH]cc2C1C1CC1 (stereo not drawn) [4-cyclopropyl-5-(4-(trifluoromethyl)phenylsulfonyl)-4,5-dihydro-2H-pyrazolo[4,3-c][1,8]naphythyridine] | 0.1 to 100 | – | –
O=S(=O)(c1ccc(C(F)(F)F)cc1)N1c2c[n+]([O-])ccc2-c2n[nH]cc2C1C1CC1 (stereo not drawn) [4-cyclopropyl-5-(4-(trifluoromethylphenylsulfonyl)-4,5-dihydro-2H-pyrazolo[4,3-c][1,7]naphthyridine 7-oxide] | 0.1 to 100 | – | –
O=S(=O)(c1ccc(F)cc1)N1c2ncccc2-c2n[nH]cc2C1C1CC1 (stereo not drawn) [4-cyclopropyl-5-(4-fluorophenylsulfonyl)-4,5-dihydro-2H-pyrazolo[4,3-c][1,8]naphthyridine] | 0.1 to 100 | – | –
O=S(=O)(c1ccc(F)cc1)N1c2ccccc2-c2n[nH]cc2C1C1CC1 (stereo not drawn) [4-cyclopropyl-5-(4-fluorophenylsulfonyl)-4,5-dihydro-2H-pyrazolo[4,3-c]quinoline] | 0.1 to 100 | – | –
